Source: patent publication US20180251431A1 (VERTEX PHARMACEUTICALS INCORPORATED, priority 2016, published 2018)

Each molecule was assayed on HEK293 cells (assay: HEK293 VLCFA-LPC IC50 determination (13C-labeled C26:0 LPC by UHPLC/MS)). Conditions: Homo sapiens, HEK293, HEK293 cells; average of one or more replicates; read-out: Average HEK293 IC50.
Type: cell-based, human
Procedure, shortened: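 Suspension HEK293 cells (final 0.5 million/mL after mixing with equal volume) incubated 48 hours with compound plus 13C-acetate (1.0 mg/mL in added media), shaking at 37° C. Lipids extracted with hexane/isopropanol or methanol, C13:0 LPC standard. UHPLC/MS of 13C-labeled C26:0 LPC (638.500/104.100 m/z); IC50 by four-parameter fit.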

Row | SMILES | IC50 [nM]
1 | COc1cc(-n2ccc(NC(=O)C3(c4ncccc4F)CC3C)n2)ccn1 (centres unmarked) [Compound 510, 1-(3-fluoro-2-pyridyl)-N-[1-(2-methoxy-4-pyridyl)pyrazol-3-yl]-2-methyl-cyclopropanecarboxamide] | 670
2 | CC1(C)CC1(C(=O)Nc1ccn(-c2cncc(F)c2)n1)c1ncccc1F (centres unmarked) [Compound 511, 1-(3-fluoro-2-pyridyl)-N-[1-(5-fluoro-3-pyridyl)pyrazol-3-yl]-2,2-dimethyl-cyclopropanecarboxamide] | 310
3 | CC1(C)CC1(C(=O)Nc1ccn(-c2cncc(Cl)c2)n1)c1ncccc1F (centres unmarked) [Compound 512, N-[1-(5-chloro-3-pyridyl)pyrazol-3-yl]-1-(3-fluoro-2-pyridyl)-2,2-dimethyl-cyclopropanecarboxamide] | 1100
4 | CC1(C)CC1(C(=O)Nc1ccn(-c2ccc(F)cc2)n1)c1ncccc1F (centres unmarked) [Compound 513, N-[1-(4-fluorophenyl)pyrazol-3-yl]-1-(3-fluoro-2-pyridyl)-2,2-dimethyl-cyclopropanecarboxamide] | 980
5 | CC1(C)CC1(C(=O)Nc1ccn(-c2ccc(F)c(F)c2)n1)c1ncccc1F (centres unmarked) [Compound 514, N-[1-(3,4-difluorophenyl)pyrazol-3-yl]-1-(3-fluoro-2-pyridyl)-2,2-dimethyl-cyclopropanecarboxamide] | 1800
6 | Cc1cc(NC(=O)C2(c3ncccc3F)CC2(C)C)nn1-c1ccc(F)cc1F (centres unmarked) [Compound 515, N-[1-(2,4-difluorophenyl)-5-methyl-pyrazol-3-yl]-1-(3-fluoro-2-pyridyl)-2,2-dimethyl-cyclopropanecarboxamide] | > 5000
7 | CC1(C)CC1(C(=O)Nc1ccn(-c2cc(F)cc(F)c2)n1)c1ncccc1F (centres unmarked) [Compound 516, N-[1-(3,5-difluorophenyl)pyrazol-3-yl]-1-(3-fluoro-2-pyridyl)-2,2-dimethyl-cyclopropanecarboxamide] | 1300
8 | COc1ncc(-n2ccc(NC(=O)C3(c4ncccc4F)CC3(C)C)n2)cc1F (centres unmarked) [Compound 517, N-[1-(5-fluoro-6-methoxy-3-pyridyl)pyrazol-3-yl]-1-(3-fluoro-2-pyridyl)-2,2-dimethyl-cyclopropanecarboxamide] | 1100
9 | CC1(C)CC1(C(=O)Nc1ccn(-c2ccncc2)n1)c1ncccc1F (centres unmarked) [Compound 518, 1-(3-fluoro-2-pyridyl)-2,2-dimethyl-N-[1-(4-pyridyl)pyrazol-3-yl]cyclopropanecarboxamide] | 1200
10 | COc1cc(-n2ccc(NC(=O)C3(c4ncccc4F)CC3(C)C)n2)ccn1 (centres unmarked) [Compound 519, 1-(3-fluoro-2-pyridyl)-N-[1-(2-methoxy-4-pyridyl)pyrazol-3-yl]-2,2-dimethyl-cyclopropanecarboxamide] | > 2000
11 | O=C(Nc1ccn(-c2cncc(Cl)c2)n1)C1(c2ncccc2F)CC12CC2 (centres unmarked) [Compound 520, N-[1-(5-chloro-3-pyridyl)pyrazol-3-yl]-2-(3-fluoro-2-pyridyl)spiro[2.2]pentane-2-carboxamide] | 1600
12 | O=C(Nc1ccn(-c2ccc(F)cc2)n1)C1(c2ncccc2F)CC12CC2 (centres unmarked) [Compound 521, N-[1-(4-fluorophenyl)pyrazol-3-yl]-2-(3-fluoro-2-pyridyl)spiro[2.2]pentane-2-carboxamide] | 2300
13 | O=C(Nc1ccn(-c2ccc(F)c(F)c2)n1)C1(c2ncccc2F)CC12CC2 (centres unmarked) [Compound 522, N-[1-(3,4-difluorophenyl)pyrazol-3-yl]-2-(3-fluoro-2-pyridyl)spiro[2.2]pentane-2-carboxamide] | 810
14 | Cc1cc(NC(=O)C2(c3ncccc3F)CC23CC3)nn1-c1ccc(F)cc1F (centres unmarked) [Compound 523, N-[1-(2,4-difluorophenyl)-5-methyl-pyrazol-3-yl]-2-(3-fluoro-2-pyridyl)spiro[2.2]pentane-2-carboxamide] | > 2000
15 | O=C(Nc1ccn(-c2cc(F)cc(F)c2)n1)C1(c2ncccc2F)CC12CC2 (centres unmarked) [Compound 524, N-[1-(3,5-difluorophenyl)pyrazol-3-yl]-2-(3-fluoro-2-pyridyl)spiro[2.2]pentane-2-carboxamide] | 1500
16 | COc1ncc(-n2ccc(NC(=O)C3(c4ncccc4F)CC34CC4)n2)cc1F (centres unmarked) [Compound 525, N-[1-(5-fluoro-6-methoxy-3-pyridyl)pyrazol-3-yl]-2-(3-fluoro-2-pyridyl)spiro[2.2]pentane-2-carboxamide] | 680
17 | O=C(Nc1ccn(-c2ccncc2)n1)C1(c2ncccc2F)CC12CC2 (centres unmarked) [Compound 526, 2-(3-fluoro-2-pyridyl)-N-[1-(4-pyridyl)pyrazol-3-yl]spiro[2.2]pentane-2-carboxamide] | 1900
18 | COc1cc(-n2ccc(NC(=O)C3(c4ncccc4F)CC34CC4)n2)ccn1 (centres unmarked) [Compound 527, 2-(3-fluoro-2-pyridyl)-N-[1-(2-methoxy-4-pyridyl)pyrazol-3-yl]spiro[2.2]pentane-2-carboxamide] | > 2000
19 | CC1CC1(C(=O)Nc1ccn(-c2ccncc2)n1)c1ncccc1F (centres unmarked) [Compound 528, 1-(3-fluoro-2-pyridyl)-2-methyl-N-[1-(4-pyridyl)pyrazol-3-yl]cyclopropanecarboxamide] | 270
20 | O=C(Nc1ccn(-c2cncc(F)c2)n1)C1(c2ncccn2)CC1 [Compound 529, N-[1-(5-fluoro-3-pyridyl)pyrazol-3-yl]-1-pyrimidin-2-yl-cyclopropanecarboxamide] | 1300
21 | O=C(Nc1ccn(-c2cncc(Cl)c2)n1)C1(c2ncccn2)CC1 [Compound 530, N-[1-(5-chloro-3-pyridyl)pyrazol-3-yl]-1-pyrimidin-2-yl-cyclopropanecarboxamide] | > 5000
22 | O=C(Nc1ccn(-c2ccc(F)c(F)c2)n1)C1(c2ncccn2)CC1 [Compound 532, N-[1-(3,4-difluorophenyl)pyrazol-3-yl]-1-pyrimidin-2-yl-cyclopropanecarboxamide] | > 5000
23 | Cc1cc(NC(=O)C2(c3ncccn3)CC2)nn1-c1ccc(F)cc1F [Compound 533, N-[1-(2,4-difluorophenyl)-5-methyl-pyrazol-3-yl]-1-pyrimidin-2-yl-cyclopropanecarboxamide] | > 2000
24 | O=C(Nc1ccn(-c2cc(F)cc(F)c2)n1)C1(c2ncccn2)CC1 [Compound 534, N-[1-(3,5-difluorophenyl)pyrazol-3-yl]-1-pyrimidin-2-yl-cyclopropanecarboxamide] | > 5000
25 | COc1ncc(-n2ccc(NC(=O)C3(c4ncccn4)CC3)n2)cc1F [Compound 535, N-[1-(5-fluoro-6-methoxy-3-pyridyl)pyrazol-3-yl]-1-pyrimidin-2-yl-cyclopropanecarboxamide] | > 5000
26 | O=C(Nc1ccn(-c2ccncc2)n1)C1(c2ncccn2)CC1 [Compound 536, N-[1-(4-pyridyl)pyrazol-3-yl]-1-pyrimidin-2-yl-cyclopropanecarboxamide] | > 5000
